Source: ChEMBL document CHEMBL3877294, “Discovery of Ruzasvir (MK-8408): A Potent, Pan-Genotype HCV NS5A Inhibitor with Optimized Activity against Common Resistance-Associated Polymorphisms” (J Med Chem, 2017)

Experiments:
Assay type in all cases: cell-based
[1] = tested on: Nonstructural protein 5A (Hepatitis C virus), Q5L478 [UNDEFINED MUTATION]; assay: Inhibition of HCV genotype-1a NS5A L31V mutant infected in human HuH7 cells by luciferase reporter gene assay; conditions: Hepatitis C virus subtype 1a; Huh-7
[2] = tested on: Huh-7; assay: Inhibition of HCV genotype-2b NS5A harboring methionine at position 31 infected in human HuH7 cells by luciferase reporter gene assay; conditions: Hepatitis C virus subtype 2b
[3] = tested on: Huh-7; assay: Inhibition of HCV genotype-3a NS5A infected in human HuH7 cells by luciferase reporter gene assay; conditions: Hepatitis C virus subtype 3a
[4] = tested on: Huh-7; assay: Inhibition of HCV genotype-1a NS5A infected in human HuH7 cells by luciferase reporter gene assay; conditions: Hepatitis C virus subtype 1a
[5] = tested on: T1, Nonstructural protein 5A (Hepatitis C virus), Q5L478 [Y93H]; assay: Inhibition of HCV genotype-1a NS5A Y93H mutant infected in human HuH7 cells by luciferase reporter gene assay; conditions: Hepatitis C virus subtype 1a; Huh-7
T1 sequence (whole entry): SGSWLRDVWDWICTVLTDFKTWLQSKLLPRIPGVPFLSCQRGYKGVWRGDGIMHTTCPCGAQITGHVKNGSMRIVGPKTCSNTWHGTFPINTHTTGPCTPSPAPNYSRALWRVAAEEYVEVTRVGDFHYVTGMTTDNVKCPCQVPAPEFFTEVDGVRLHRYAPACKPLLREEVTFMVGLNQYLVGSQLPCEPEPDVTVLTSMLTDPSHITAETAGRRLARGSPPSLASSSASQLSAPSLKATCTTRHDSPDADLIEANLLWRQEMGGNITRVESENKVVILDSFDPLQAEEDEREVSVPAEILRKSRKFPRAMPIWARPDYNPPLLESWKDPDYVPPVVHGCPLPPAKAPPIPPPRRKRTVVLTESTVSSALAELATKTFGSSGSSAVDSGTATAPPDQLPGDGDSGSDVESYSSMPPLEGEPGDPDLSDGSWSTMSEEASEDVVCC

[6] = tested on: Huh-7; assay: Inhibition of HCV genotype-4a NS5A infected in human HuH7 cells by luciferase reporter gene assay; conditions: Hepatitis C virus subtype 4a

| Compound | EC90 [1] | EC90 [2] | EC90 [3] | EC90 [4] | EC90 [5] | EC90 [6] |
| --- | --- | --- | --- | --- | --- | --- |
| COC(=O)N[C@H](C(=O)N1CCC[C@H]1c1ncc(-c2cc(F)c3c(c2)OC(c2cc(C4CC4)cs2)n2c-3cc3cc(-c4cnc([C@@H]5CCCN5C(=O)[C@@H](NC(=O)OC)C(C)C)[nH]4)ccc32)[nH]1)C(C)C (some centres not stated) | 0.028 nM | 1.6 nM | 0.008 nM | < 0.002 nM | 1.74 nM |  |
| COC(=O)N[C@H](C(=O)N1CCC[C@H]1c1ncc(-c2cc(F)c3c(c2)OC(c2ccsc2)n2c-3cc3cc(-c4cnc([C@@H]5CCCN5C(=O)[C@@H](NC(=O)OC)C(C)C)[nH]4)ccc32)[nH]1)C(C)C (some centres not stated) | 0.13 nM | 3.7 nM | 0.013 nM | 0.002 nM | 0.59 nM | 0.01 nM |
| COCc1ncc(C2Oc3cc(-c4cnc([C@@H]5CCCN5C(=O)[C@@H](NC(=O)OC)C(C)C)[nH]4)cc(F)c3-c3cc4cc(-c5cnc([C@@H]6CCCN6C(=O)[C@@H](NC(=O)OC)C(C)C)[nH]5)ccc4n32)s1 (some centres not stated) | 0.017 nM | 0.12 nM | 0.007 nM | 0.002 nM | 0.04 nM | 0.003 nM |
| COC(=O)N[C@H](C(=O)N1CCC[C@H]1c1ncc(-c2cc(F)c3c(c2)OC(c2cnc(C4(C)CC4)s2)n2c-3cc3cc(-c4cnc([C@@H]5C[C@H]6C[C@H]6N5C(=O)[C@@H](NC(=O)OC)C(C)C)[nH]4)ccc32)[nH]1)C(C)C (some centres not stated) | 0.007 nM | 0.18 nM | 0.009 nM | 0.005 nM | 0.02 nM | 0.005 nM |
| COC(=O)N[C@H](C(=O)N1CCC[C@H]1c1ncc(-c2cc(F)c3c(c2)OC(c2sc(C4CC4)cc2F)n2c-3cc3cc(-c4cnc([C@@H]5CCCN5C(=O)[C@@H](NC(=O)OC)C(C)C)[nH]4)ccc32)[nH]1)C(C)C (some centres not stated) |  | 0.68 nM | 0.008 nM | 0.002 nM | 0.74 nM | 0.003 nM |
| COC(=O)N[C@H](C(=O)N1CCC[C@H]1c1ncc(-c2cc(F)c3c(c2)OC(c2cncs2)n2c-3cc3cc(-c4cnc([C@@H]5CCCN5C(=O)[C@@H](NC(=O)OC)C(C)C)[nH]4)ccc32)[nH]1)C(C)C (some centres not stated) |  | 2.47 nM | 0.079 nM | 0.006 nM | 1 nM |  |
| CCc1ncc(C2Oc3cc(-c4cnc([C@@H]5CCCN5C(=O)[C@@H](NC(=O)OC)C(C)C)[nH]4)cc(F)c3-c3cc4cc(-c5cnc([C@@H]6CCCN6C(=O)[C@@H](NC(=O)OC)C(C)C)[nH]5)ccc4n32)s1 (some centres not stated) | 0.048 nM | 0.097 nM | 0.009 nM | 0.004 nM | 0.14 nM | 0.011 nM |
| COC(=O)N[C@H](C(=O)N1CCC[C@H]1c1ncc(-c2cc(F)c3c(c2)OC(c2ccc(C(F)(F)F)s2)n2c-3cc3cc(-c4cnc([C@@H]5CCCN5C(=O)[C@@H](NC(=O)OC)C(C)C)[nH]4)ccc32)[nH]1)C(C)C (some centres not stated) | 0.097 nM | 0.31 nM | 0.007 nM | 0.003 nM | 0.31 nM | 0.003 nM |
| COC(=O)N[C@H](C(=O)N1CCC[C@H]1c1ncc(-c2cc(F)c3c(c2)OC(c2cnc(C(C)C)s2)n2c-3cc3cc(-c4cnc([C@@H]5C[C@H]6C[C@H]6N5C(=O)[C@@H](NC(=O)OC)C(C)C)[nH]4)ccc32)[nH]1)C(C)C (some centres not stated) | 0.008 nM | 0.23 nM | 0.006 nM | 0.003 nM | 0.028 nM | 0.006 nM |
| COC(=O)N[C@H](C(=O)N1CCC[C@H]1c1ncc(-c2ccc3c(c2)cc2n3C(c3cc4ccccc4s3)Oc3cc(-c4cnc([C@@H]5C[C@@H](F)CN5C(=O)[C@@H](NC(=O)OC)C(C)C)[nH]4)ccc3-2)[nH]1)C(C)C (some centres not stated) | 0.53 nM | 3.4 nM | 0.19 nM | 0.01 nM | 1.1 nM |  |
| CCc1nnc(C2Oc3cc(-c4cnc([C@@H]5CCCN5C(=O)[C@@H](NC(=O)OC)C(C)C)[nH]4)cc(F)c3-c3cc4cc(-c5cnc([C@@H]6CCCN6C(=O)[C@@H](NC(=O)OC)C(C)C)[nH]5)ccc4n32)s1 (some centres not stated) |  | > 1.7 nM | 0.18 nM | 0.016 nM | 7.4 nM |  |
| COC(=O)N[C@H](C(=O)N1CCC[C@H]1c1ncc(-c2cc(F)c3c(c2)OC(c2nc(C4CC4)cs2)n2c-3cc3cc(-c4cnc([C@@H]5CCCN5C(=O)[C@@H](NC(=O)OC)C(C)C)[nH]4)ccc32)[nH]1)C(C)C (some centres not stated) |  | 4.6 nM | 0.073 nM | 0.002 nM | 2.6 nM |  |
| COC(=O)N[C@H](C(=O)N1CCC[C@H]1c1ncc(-c2cc(F)c3c(c2)OC(c2ncc(C4CC4)s2)n2c-3cc3cc(-c4cnc([C@@H]5CCCN5C(=O)[C@@H](NC(=O)OC)C(C)C)[nH]4)ccc32)[nH]1)C(C)C (some centres not stated) | 0.017 nM | 1.63 nM |  | 0.005 nM | 1 nM |  |
